Test systems include SNB-75 CNS; SK-MEL-28 melanoma; DU-145 prostate; NCI/ADR-RES ovarian; IGROV1 ovarian; COLO 205 colon; CAKI-1 renal; SR leukemia; MOLT-4 leukemia; MDA-MB-435.
Common to all, as to experiment: growth of human tumour cells (NCI), 48 h

The structures appear in SMILES notation.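 Each compound was tested at five concentrations against cells in 96-well plates for 48 hours. GI50 is the concentration that inhibits growth by half. At the TGI there is no net growth.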

Turning to `Cc1cccc2c(=O)c3c(sc12)c(NCCN)nc1ccccc13`, the GI50 with SNB-75 CNS is 0.448 µM; with SK-MEL-28 melanoma, 0.936 µM; in the test on DU-145 prostate it was 0.981 µM; in the test on NCI/ADR-RES ovarian it was 0.909 µM; with IGROV1 ovarian, 0.582 µM; in the test on COLO 205 colon, 0.826 µM. For the same compound, the GI50 in the test with CAKI-1 renal is 0.851 µM; with SR leukemia it was 0.719 µM; in the test with MOLT-4 leukemia, 0.887 µM; with MDA-MB-435, 0.911 µM. Further, the TGI was 2.79 µM with SNB-75 CNS; 1.7 µM in the test on SK-MEL-28 melanoma; 1.97 µM in the test on DU-145 prostate; 1.95 µM in the test with NCI/ADR-RES ovarian; 1.26 µM in the test with IGROV1 ovarian; 1.65 µM in the test with COLO 205 colon. In addition, the TGI worked out at 2.85 µM in the test on CAKI-1 renal, 1.85 µM in the test with SR leukemia, 1.8 µM with MOLT-4 leukemia and 1.67 µM in the test with MDA-MB-435.

Turning to `O=C1[C@H](c2ccccc2)C2c3ccccc3CCN12` (stereo partly drawn), the TGI with SNB-75 CNS, in the test on SK-MEL-28 melanoma, with DU-145 prostate, in the test on NCI/ADR-RES ovarian, with IGROV1 ovarian and in the test with COLO 205 colon was > 100 µM throughout. Also, the TGI in the test with CAKI-1 renal, in the test on SR leukemia, with MOLT-4 leukemia and with MDA-MB-435 was > 100 µM each time. Besides, the GI50 in the test on SK-MEL-28 melanoma, with DU-145 prostate, in the test on NCI/ADR-RES ovarian, in the test on IGROV1 ovarian, in the test on COLO 205 colon and in the test with CAKI-1 renal was > 100 µM throughout. Further, the GI50 in the test on SR leukemia, with MOLT-4 leukemia and in the test with MDA-MB-435 was > 100 µM throughout.

`COc1ccc2c(c1)CC[C@@H]1[C@@H]2CC[C@]2(C)c3c(cc(C(=O)c4ccccc4)c4sccc34)C[C@@H]12`: the GI50 in the test with SNB-75 CNS was 22.8 µM; in the test on SK-MEL-28 melanoma it was > 100 µM; in the test with DU-145 prostate, > 100 µM; in the test with NCI/ADR-RES ovarian, > 100 µM; in the test with IGROV1 ovarian, > 100 µM; in the test on COLO 205 colon, > 100 µM. The GI50 with CAKI-1 renal, in the test on SR leukemia, in the test on MOLT-4 leukemia and in the test on MDA-MB-435 was > 100 µM each time. Besides, the TGI in the test on SNB-75 CNS, in the test on SK-MEL-28 melanoma, in the test on DU-145 prostate, in the test on NCI/ADR-RES ovarian, in the test on IGROV1 ovarian and in the test with COLO 205 colon was > 100 µM throughout. Further, the TGI with CAKI-1 renal, in the test on SR leukemia, with MOLT-4 leukemia and in the test on MDA-MB-435 was > 100 µM throughout.

With `CCOCC[P+](c1ccccc1)(c1ccccc1)c1ccccc1`, the GI50 in the test on SNB-75 CNS is 10.8 µM; in the test with SK-MEL-28 melanoma it was 16 µM; with DU-145 prostate it was 27.5 µM; in the test with NCI/ADR-RES ovarian it was > 100 µM; in the test with IGROV1 ovarian it was 13.5 µM; in the test with COLO 205 colon, 11.7 µM. Moreover, the GI50 in the test with CAKI-1 renal was 44.1 µM; in the test with SR leukemia it was 12.1 µM; in the test with MOLT-4 leukemia, 31.4 µM; in the test with MDA-MB-435, 9.26 µM. The TGI is 53.4 µM with SNB-75 CNS; 70.6 µM in the test with SK-MEL-28 melanoma; > 100 µM in the test on DU-145 prostate; > 100 µM in the test with NCI/ADR-RES ovarian; 63.7 µM with IGROV1 ovarian; 26.5 µM in the test on COLO 205 colon. For the same compound, the TGI is > 100 µM in the test with CAKI-1 renal, > 100 µM with SR leukemia, > 100 µM in the test with MOLT-4 leukemia and 51.9 µM in the test with MDA-MB-435.

Take `Cc1ccc(S(=O)(=O)N2C/C(=C\c3cc(F)cc(F)c3)C(=O)/C(=C/c3cc(F)cc(F)c3)C2)cc1`: the GI50 is 1.91 µM in the test on SNB-75 CNS; 0.388 µM with SK-MEL-28 melanoma; 0.787 µM in the test with DU-145 prostate; 0.447 µM in the test with NCI/ADR-RES ovarian; 0.371 µM with IGROV1 ovarian; 0.653 µM in the test on COLO 205 colon. Besides, the GI50 with CAKI-1 renal was 0.367 µM; in the test with SR leukemia it was 0.0364 µM; with MOLT-4 leukemia it was 0.299 µM; in the test with MDA-MB-435, 0.236 µM. For the same compound, the TGI with SNB-75 CNS was determined as 5.99 µM; in the test with SK-MEL-28 melanoma it was 1.32 µM; in the test on DU-145 prostate it was 2.39 µM; in the test on NCI/ADR-RES ovarian, 12.7 µM; in the test with IGROV1 ovarian, 1.4 µM; in the test with COLO 205 colon, 2.33 µM. Moreover, the TGI in the test with CAKI-1 renal was found to be 2.4 µM; in the test with SR leukemia, 0.296 µM; in the test on MOLT-4 leukemia, 2.11 µM; with MDA-MB-435, 0.653 µM.

As to `C[C@H]1[C@H](C)CC[C@]2(C(=O)O)CC[C@]3(C)C(=CC[C@@H]4[C@@]5(C)CC[C@H](OC(=O)/C=C\c6ccc(O)cc6)C(C)(C)[C@@H]5CC[C@]43C)[C@H]12`, the GI50 with SNB-75 CNS was 22.3 µM; with SK-MEL-28 melanoma, 18 µM; in the test on DU-145 prostate, 4.07 µM; with NCI/ADR-RES ovarian, 3.02 µM; in the test with IGROV1 ovarian, 15.5 µM; with COLO 205 colon it was 3.85 µM. The GI50 was 3.71 µM in the test with CAKI-1 renal, 2.69 µM in the test with SR leukemia, 4.56 µM with MOLT-4 leukemia and 4.24 µM with MDA-MB-435. Besides, the TGI with SNB-75 CNS was 45.9 µM; with SK-MEL-28 melanoma, 57 µM; with DU-145 prostate, 17.6 µM; in the test on NCI/ADR-RES ovarian it was 15 µM; with IGROV1 ovarian it was > 100 µM; with COLO 205 colon, 14.8 µM. Further, the TGI stood at 15.6 µM with CAKI-1 renal, 6.66 µM in the test on SR leukemia, 19.7 µM in the test with MOLT-4 leukemia and 42.4 µM in the test with MDA-MB-435.

Take `CNC(=S)N/N=C(/C)CCC/C(C)=N/NC(=S)NC`: the TGI with SNB-75 CNS, in the test with SK-MEL-28 melanoma, in the test on DU-145 prostate, in the test with NCI/ADR-RES ovarian, in the test on IGROV1 ovarian and with COLO 205 colon was > 100 µM each time. Besides, the TGI with CAKI-1 renal is > 100 µM; with SR leukemia it was > 100 µM; with MOLT-4 leukemia, 0.303 µM; with MDA-MB-435 it was > 100 µM.

For the compound `COc1ccc2cc(C(=O)/C=C/c3ccccc3OC)ccc2c1`, the GI50 was 4.06 µM in the test with SNB-75 CNS; 21.3 µM in the test with SK-MEL-28 melanoma; 2.63 µM in the test with DU-145 prostate; 3.19 µM in the test on NCI/ADR-RES ovarian; 0.769 µM in the test on IGROV1 ovarian; 3.56 µM in the test on COLO 205 colon. Further, the GI50 in the test with CAKI-1 renal is 0.862 µM; with SR leukemia it was 0.312 µM; with MOLT-4 leukemia it was 1.26 µM; with MDA-MB-435, 0.57 µM. Also, the TGI with SNB-75 CNS is > 51.6 µM; in the test with SK-MEL-28 melanoma, > 94.8 µM; in the test with DU-145 prostate, 8.07 µM; in the test with NCI/ADR-RES ovarian, > 37.4 µM; in the test with IGROV1 ovarian, 4.06 µM; with COLO 205 colon, 49.4 µM. Besides, the TGI is 4.88 µM with CAKI-1 renal, 9.45 µM in the test on MOLT-4 leukemia and 5.03 µM in the test on MDA-MB-435.

For the origin of these results see PubChem BioAssay (NCI).
